Assay results taken from publication PMC10488051, “Screening, Synthesis and Biochemical Characterization of SARS-CoV-2 Protease Inhibitors” (International Journal of Molecular Sciences, 2023).

Molecular target: mutant PL^proC111S (Severe acute respiratory syndrome coronavirus 2, UniProt P0DTD1, C1674S)
Format: binding, SARS-CoV-2

**Q.** With `Nc1ccccc1SSc1ccccc1N` [Compound 32] as the compound, how does the “Thermal effect (Tm) on mutant PL^proC111S” value read?
**A.** but not the mutant PL^proC111S
